# Reference: PMC12524297 (International Journal of Molecular Sciences, 2025)
# Read-outs that look alike come from different tables or passages of the source.
# Assays:
# [1] = test system: Caenorhabditis elegans (C. elegans, N2 strain)
# [2] = In vitro assays confirming flagged compound (no details given)
# From the text: 5.Implementation and Reproducibility
# 5.1 Real-World Deployment in Chemical Safety Assessment
# HazChemNet has been integrated into a cloud-based decision support system for chemical safety evaluation, enabling real-time toxicity prediction for industrial and regulatory use. Key applications include:
# Industrial Chemical Screening:
# A pharmaceutical company utilized HazChemNet to prioritize 1,200 candidate compounds for drug development. The model identified 18% as high-risk (toxic), reducing experimental testing costs by 35%.
# Environmental Regulation Compliance:
# A regulatory agency deployed the model to screen 5,000 industrial chemicals under the EU REACH framework.
# HazChemNet achieved 89% concordance with expert evaluations, accelerating risk assessment workflows.
# 5.2 Case Study: Identification of Emerging Contaminants
# We applied HazChemNet to predict the toxicity of per- and polyfluoroalkyl substances (PFAS), a class of persistent environmental pollutants. The model identified 22 out of 30 PFAS compounds as hazardous, including:
# PFOS (Perfluorooctanesulfonic acid): Predicted probability = 0.93 (high risk).
# GenX (Hexafluoropropylene oxide dimer acid): Predicted probability = 0.87 (moderate risk).
# Validation: Experimental LC50 data from zebrafish assays confirmed the predictions with a Spearman correlation of ρ […]
# 5.3 Integration with Laboratory Information Systems […]
Molecule,mortality ([1]; in vivo),further results
O=C(O)CC(O)(CC(=O)O)C(=O)O [Citric Acid],no significant mortality,
CC(=O)[O-].CC(=O)[O-].[Pb+2] [Lead Acetate],,"LD50 ([1]; L4-stage worms, 24 h at 20 °C, K-M buffer, Probit analysis): 0.464 to 1 mg/mL"
OCC(O)CO [Glycerol],no significant mortality,
O=C1C=CC(=O)C(Cl)=C1 [CID_123456],,confirmation of hazard flag by in vitro assays [2]: confirmed by in vitro assays
Gibberellin,no significant mortality,
Ethyl Alcohol,,LD50 ([1]; in vivo): 46.4 to 100 mg/mL
